Columns and labels:
Stability / shelf life = type: physicochemical; conditions: protected from light and maintained at 4° C.
Solubility = type: physicochemical; conditions: distilled water or aqueous buffer

## CC[C@H](C)[C@H](NC(=O)[C@H](Cc1ccc(O)cc1)NC(=O)[C@@H]1CCCN1C(=O)[C@H](CCCNC(=N)N)NC(=O)[C@H](CCCNC(=N)N)NC(=O)[C@@H]1CCCN1C(=O)[C@H](CCCCN)NC(=O)[C@H](CC(N)=O)NC(=O)[C@H](CCC(=O)O)NC(=O)[C@H](Cc1ccc(O)cc1)NC(=O)[C@H](CC(C)C)NC(=O)[C@H](CCC(=O)O)NC(=S)Nc1ccc2c(c1)C(=O)OC21c2ccc(O)cc2Oc2cc(O)ccc21)C(=O)N[C@@H](CC(C)C)C(=O)O [N-FTC-[Glu^1]NT, N-fluoresceyl thiocarbamyl-[Glu^1] neurotensin]
Stability / shelf life
  stability: stable
Solubility
  solubility: freely soluble
Toxicity (statement)
  toxicity: 100% non-toxic

From patent US5760188A, “Marker for neurotensin receptor” (Martin R&F Inc., priority 1996, dated 1998)
